Data reported in patent US6649797B2, “Compounds and methods of use to treat infectious diseases” (The Picower Institute for Medical Research, priority 1996, dated 2003).
Where two headings read alike, the source gives them in different places.

What was measured:
Plasmodium falciparum = assay: Antimalarial activity in vitro, [3H]-hypoxanthine incorporation; assay type: cell-based; conditions: for IC50: Plasmodium falciparum
Source text: The antimalarial properties of the compounds of the invention can be analyzed by techniques, assays and experimental animal models well known in the art. For example, the inhibition of growth of Plasmodium falciparum in vitro by the compounds may be assessed by the hypoxanthine-incorporation method (Desjardins et al., 1979, Antimicrob. Ag. Chemother. 16:710-718). […] The in vivo efficacy of the compounds can also be tested in mouse models in which parasitemia is enumerated following administration of the compound (Ager, A. L. 1984, Rodent malaria models, pp 225-264. In Handbook of Experimental Pharmacology vol. 68, Antimalarial Drugs, Peters and Richards eds, Springer-Verlag, Berlin).
The antimalarial activity of the compounds was determined essentially as described in Desjardins et al. supra. Fifty μl of various concentrations of a compound of the invention, chloroquine, or pyrimethamine were added to the wells of microtiter plates, followed by 200 μl of ring-stage, synchronized, P. falciparum-infected erythrocytes (final hematocrit=1.5%, final parasitemia=1-5%). The plates were incubated for 24 hr in a candle jar kept at 37° C., and then 25 μl of [^3H]-hypoxanthine (Amersham, Arlington Heights, ILL.; 2.5 μl Ci/well) was added. The plates were then incubated for a further 24 hr, before harvesting onto Unifilter-96 GF/C filter-microplates (Packard; Meriden, Conn.). Twenty-five μl of Microscint scintillation fluid (Packard) was added to each well of the filter-microplate, which was subsequently counted in a Top-count microplate scintillation counter (Packard). The percent of [^3H]-hypoxanthine uptake relative to control infect-erythrocytes was used to determine the IC50 value for the compounds by non-linear regression for LD50 determination.

HIV-1 [1] = assay: HIV-1 production in cultured monocytes at fixed 100 nM; assay type: cell-based; conditions: monocytes infected 10 days prior to assay (10 ng p24/10^6 cells), percentage of untreated control
Procedure: Alternatively, the compounds may all be compared for inhibition of HIV replication at a fixed concentration. Presented in Table II are compounds that were used at a concentration of 100 nM to inhibit the production of HIV-1 in cultured monocytes infected with HIV-1 10 days prior to assay (10 ng of p24/10^6 cells). The production of HIV-1 in each treated culture is reported as percentage of untreated control.

HIV-1 [2] = assay: AZT and Compound No. 2 in combination, HIV-1 infected monocyte cultures, RT activity; assay type: cell-based; conditions: for reverse transcriptase activity in supernatant: (−) No. 2
Procedure: Primary human monocytes were obtained from peripheral blood by Ficoll-Hypaque centrifugation and adherence to plastic as described previously. Gartner S. P., et al., 1986, Science 233:215. Briefly, after Ficoll-Hypaque (Pharmacia) separation, PBMCs were washed 4 times with DMEM (the last wash was done at 800 rpm to remove platelets) and resuspended in monocyte culture medium [DMEM supplemented with 1 mM glutamine, 10% heat-inactivated human serum, 1% penicillin+streptomycin mixture (Sigma)] at a density of 6×10^6 cells/ml. Cells were seeded in 24-well plates (1 ml per well) and incubated for 2 h at 37° C, 5% CO2. Following incubation, cells were washed 3 times with DMEM to remove non-adherent cells and incubation was continued in monocyte culture medium supplemented with 250 U/ml human M-CSF (Sigma). Cells were allowed to mature for 7 days prior to infection with the monocyte-tropic strain, HIV-1ADA. Nuovo, G. J., et al., 1992, Diagn. Mol. Pathol. 1:98. Two hours after infection, cells were washed with medium and cultured in RPMI supplemented with 10% human serum. In experiments where PCR analysis was performed, virus was pretreated with RNAse-free DNAse (Boehinger-Mannheim) for 2 h at room temperature and then filtered though a 0.2 μm pore nitrocellulose filter prior to infection.
For the reverse transcriptase (RT) assay, 10 μl of culture supernatant was added to 40 μl of reaction mixture (final composition was 50 mM Tris-HCl, pH 7.8; 20 MM KCl; 5 MM MgCl2; 1 mM DTT; 0.1% Triton X-100; 0.2 OD/ml polyA; 0.2 OD/ml oligo(dT)12-18; and 40 μCi/ml ^3H-dTTP (76 Ci/mmol, DuPont) and incubated 2 hr at 37° C. 5 μl of the reaction mixture was then spotted onto the DE 81 (Whatman) paper. Paper was air dried and washed 5 times with 5% Na2HPO4, followed by rinsing with distilled water. After air drying, paper was put on a Flexi Filter plate (Packard), covered with scintillation fluid and counted in a Top Count Microplate Counter (Packard). Results are expressed as counts per minute in 1 ml of supernatant (cpm/ml).
In view of these premises, the effects on HIV-1 replication in human monocyte cultures of the various concentrations of AZT, alone or in combination with 100 nM Compound No. 2, were tested using the protocols of Sections 6.2.1 and 6.2.2. Drugs were added to the monocyte cultures together with HIV-1 at about 10^5 TCID/ml. The concentration of drugs was maintained on refeeding. HIV-1 replication was assessed by assay of the supernatant for reverse transcriptase activity. The results are expressed as mean ± std. dev. (cpm×10^−3) in Table V.

[3] = Toxicity in mice, median lethal dose by intraperitoneal injection; assay type: in vivo, mouse; conditions: for LD50: mouse, in vivo, ip, read-out: LD50 ± standard deviation
Procedure: The doses of compounds of the invention found to be lethal to 50% of the mice (LD50) were determined by intraperitoneal injection of groups of five animals with increasing doses of each compound. CNI-0294 was administered from 0, 2, 10, 20, 40, 80, 160, 320, 640, 1280 mg/kg in 0.5 ml of water/HCl; CNI-1594 at 0, 2.4, 5, 10, 20, 40, 80 mg/kg in 0.5 ml of water/HCl; CNI-1794 at 0, 20, 50, 80 mg/kg in 0.5 ml of water/HCl; and CNI-1894 at 0, 10, 20, 40, 80, 240, 480, 960 mg/kg in water/HCl. […] The percentage of animals in each group which died were utilized to calculate the LD50 by non-linear curve fitting with the Enzfit software (Elsevier Bioscience; Cambridge, UK) programmed with the Chou equation (Chou 1976, J Theor Biol 39:253-276)).

[4] = Pharmacokinetics in mice (plasma, HPLC); assay type: in vivo, mouse
Procedure: Standard addition curves for each test compound were constructed by adding increased amounts of drug to mouse or human A^+ plasma (Long Island Blood Services; Melville, N.Y). […] The column was washed with 1.0 ml of water and then eluted with 1.0 ml of 10 mM tetramethylammonium chloride/10 mM heptane sulfonate/4.2 mM H3PO4/95% CH3CN/5% H2O (Buffer C). The eluted sample was reduced to dryness in a rotary evaporator and resuspended in 1.0 ml Buffer A.
Two hundred μl of the resuspended sample was injected onto a Hewlett-Packard model 1090 high performance liquid chromatography system (HPLC)(Wilmington, Del.) equipped with a photodiode array ultraviolet/visible spectrophotometric detector, autosampler, and Chemstation operating software. The column used was a 250×4.6 mm Zorbax RX-C8 column (Mac-Mod Analyticals; Chadd's Ford, Pa.) kept at room temperature and run at 1.5 ml/min. The mobile phase used was Buffer A and 10 mM tetramethylammonium chloride/10 mM heptane sulfonate/4.2 mM H3PO4/75% CH3CN/25% H2O (Buffer B), with all runs initiated at 10% Buffer B. A linear 30 min gradient to 60% Buffer B was then performed, followed by a 4 min reverse gradient to initial conditions.
Female ND4 Swiss Webster mice (21-24 g) were obtained from Harlan Sprague Dawley (Indianapolis, Ind.) and randomly placed in groups of five in cages with free access to food and water. […] The other CNI compounds were administered intraperitoneally or by oral gavage as a solution in water titrated with sufficient HCl to dissolve the drug. At various time points, ranging from 5 min to 4 days, a single group of animals was euthanized by carbon dioxide inhalation and bled by cardiac puncture using heparin as an anticoagulant. The blood from the five mice in the group was pooled and centrifuged at 14000× g for 10 min. The volume of plasma was measured, and equal volume of Buffer A added, and the mixture extracted and analyzed as described above, except that the dried eluates were resuspended in 200 μl Buffer A and 100 μl was injected onto the high performance liquid chromatography (HPLC) system.
The area under the plasma concentration-time curve (AUC) was determined, and bioavailability was measured as AUCoral/AUCi.p. A and B represent the zero time intercept of the distribution and elimination phases respectively, and a and β the respective slopes of the phases multiplied by 2.303. The t/2α and t1/2β are calculated half-lives of the drug in each phase (0.693/α and 0.693/β respectively). The volume of distribution (VD) was calculated as dose/B, and the total clearance rate (Cltot) calculated as β*VD. Cmax and tmax are the maximal plasma concentration and time of this measurement, respectively.

[5] = In vitro metabolism with mouse liver post-mitochondrial supernatant and NADPH; assay type: in vitro ADME
Procedure: Several female ND4 Swiss Webster mice were euthanized by carbon dioxide inhalation and the livers excised and rinsed with ice cold phosphate buffered saline (pH 7.4). The livers were minced, gently homogenized in 50 mM phosphate buffer (pH 7.4) with a Dounce homogenizer, and centrifuged at 9600× g for 20 min. The post-mitochondrial supernatant was kept, glycerol added to 20%, and frozen at −70° C in 1.0 ml aliquots until used. For each incubation, 1.0 ml of a 1.0 mg/ml drug solution was added to 3.0 ml of 50 mM phosphate buffer (pH 7.4), 1.0 ml of 2 mg/ml NADPH in 50 mM phosphate (pH 7.4), and 1.0 ml of the post-mitochondrial supernatant. Five hundred μl of each incubate was then immediately transferred to an ice-cold tube to provide the zero-time sample, and addition 500 μl aliquots removed to ice-cold tubes at 8, 15, 30, and 60 min. The samples were then extracted, and analyzed by HPLC as described in section 7.1. Control incubations were also performed where drug or post-10 mitochondrial supernatant was omitted. […] Peaks in the CNI compound incubations which increased over time, and were not present in control samples lacking the enzyme preparation were treated as putative metabolites.

HIV-1ADA = assay: Anti-HIV activity in primary human monocytes, day 9 (Table IX, FIG. 12C); assay type: cell-based; conditions: Human immunodeficiency virus 1, Monocyte, 216 h; day 9 after infection; >10 μM = 50% inhibition not achieved at maximal concentration; read-out: IC50
Procedure: Monocytes infected with HIV-1ADA were cultured in the presence of CNI-H0294 and CNI-H3094 in various concentrations. Nine days after infection, RT activity in culture supernatants was quantified. The results are presented as percent of total RT activity in untreated cultures (control). Three independent samples were assayed for each drug concentration, and the standard deviation was less than 15%.
[…] A 50% inhibitory concentration (IC50) was determined at day 9 after infection.

[6] = female, ND4 Swiss Webster, mouse, plasma, ip, 50 mg/kg, vehicle water
[7] = mouse, i.p., 50 mg/kg, vehicle water

Work on CCN(CC)CCCC(C)Nc1ccnc2cc(Cl)ccc12 (centres unmarked) [Chloroquine] yielded an IC50 (Plasmodium falciparum; DD2, clone Dd2, Chloroquine column, unit inferred) of 123 ± 7.26 nM, an IC50 (Plasmodium falciparum; FCR3, clone FCR-3, Chloroquine column, unit inferred) of 105 ± 9.98 nM and an IC50 (Plasmodium falciparum; HB3, clone HB3, Chloroquine column, unit inferred) of 6.73 ± 0.16 nM. The IC50 (Plasmodium falciparum; clone D10, Chloroquine column, unit inferred) was 27 ± 2.42 nM and the IC50 (Plasmodium falciparum; clone W2mef, Chloroquine column, unit inferred) was 144 ± 13.3 nM.
With CC(=O)c1cccc(C(C)=O)c1N [2,6-diacetylaniline] the “Viral Production” value (HIV-1 [1]) was 28%.
CCc1nc(N)nc(N)c1-c1ccc(Cl)cc1 [Pyrimethamine] showed an IC50 (Plasmodium falciparum; DD2, clone Dd2, ± standard deviation, read-out: IC50) of 104000 ± 9790 nM and an IC50 (Plasmodium falciparum; clone W2mef, ± standard deviation, read-out: IC50) of 17800 ± 13500 nM.
With Cc1cn([C@H]2C[C@H](N=[N+]=[N-])[C@@H](CO)O2)c(=O)[nH]c1=O [AZT] the “reverse transcriptase activity in supernatant” value (from here on “reverse transcriptase activity”) (HIV-1 [2]; day-7, 10 pM AZT, mean ± std. dev.) was 0.92 ± 0.21 cpm×10^−3, the “reverse transcriptase activity” value (HIV-1 [2]; day-7, 100 pM AZT) was 0.79 ± 0.14 cpm×10^−3 and the “reverse transcriptase activity” value (HIV-1 [2]; day-7, 1 nM AZT) was 0.60 ± 0.28 cpm×10^−3. For the same molecule, the “reverse transcriptase activity” value (HIV-1 [2]; day-7, 10 nM AZT) was 0.05 ± 0.02 cpm×10^−3, the “reduction in RT activity” value (HIV-1 [2]; day-11, 10 pM AZT alone) was “about 20%” and the “reverse transcriptase activity” value (HIV-1 [2]; day-11, 10 pM AZT) was 1.63 ± 0.81 cpm×10^−3. The “reverse transcriptase activity” value (HIV-1 [2]; day-11, 100 pM AZT) was 1.34 ± 0.59 cpm×10^−3, the “reverse transcriptase activity” value (HIV-1 [2]; day-11, 1 nM AZT) was 1.07 ± 0.49 cpm×10^−3 and the “reverse transcriptase activity” value (HIV-1 [2]; day-11, 10 nM AZT) was 0.08 ± 0.03 cpm×10^−3.
In the case of CC(=O)c1cncc(C(C)=O)c1 [3,5-diacetylpyridine], the “Viral Production” value (HIV-1 [1]) is reported as 58%.
With CC(=O)c1ccc(Nc2cc(C)nc(N)n2)cc1 [Compound No. 17, 2-amino-4-(4-acetylphenyl)amino-6-methylpyrimidine] the LD50 [3] was 48.93 ± 0.12 mg/kg.
In the case of CC(=O)c1cc(N)cc(C(C)=O)c1 [CNI-1894, 3,5-diacetylaniline], the “Viral Production” value (HIV-1 [1]) is reported as 20%, the AUC [4, 6] is reported as 20200 ng·h/mL and the Cmax [4, 6] is reported as 13400 ng/mL. The Tmax ([4]; female, ND4 Swiss Webster, plasma, ip, mouse, i.p., 50 mg/kg, vehicle water, read-out: tmax (converted)) was 5 min, the maximal plasma level ([4]; mice, single i.p. injection (50 mg/kg; CNI-1594 20 mg/kg)) was 13.43 µg/mL and the “A (zero time intercept of the distribution phase)” value [4, 7] was 14.93 µg/mL. The “B (zero time intercept of the elimination phase)” value [4, 7] was 0.15 µg/mL, the Cltot [4, 7] was 3.30 mL/min and the t1/2α [4, 7] was 34.8 min. For the same molecule, the t1/2β [4, 7] was 1386 min, the α [4, 7] was 1.19 h⁻¹ and the β [4, 7] was 0.03 h⁻¹. The “visible signs of toxicity” value [3] was “died 2-3 days post injection, and showed no sign of any immediate toxicity”, the LD50 [3] was 258.6 ± 1.37 mg/kg and the metabolites produced [5] was “one minor and one major metabolite”. For the same molecule, the “metabolic conversion (drug altered, as judged by peak area)” value ([5]; 60 min incubation) was 17.28%, the antimalarial activity (Plasmodium falciparum; clone Dd2, highest concentration tested 200 μM) was “inactive at the highest concentration tested” and the IC50 (HIV-1ADA) was > 10000 nM.
For CC(=O)c1cc(C(C)=O)cc(N(C)C)c1 [N,N-dimethyl-3,5-diacetylaniline], the “Viral Production” value (HIV-1 [1]) was 25%.
